Source: patent publication US20180194762A1 (Pharmacyclics LLC, priority 2017, published 2018)
Where two headings read alike, the source gives them in different places.

Legend:
Assay type in all cases: biochemical
panel of kinases = target: T1, panel of kinases (Homo sapiens, UniProt P51813); assay: Inhibition of a panel of kinases (in vitro HotSpot kinase assay, 33P-ATP, 1 μM ATP), other kinases; details: BMX wild-type, read-out: BMX-WT IC50
T1 sequence (P51813 1-675): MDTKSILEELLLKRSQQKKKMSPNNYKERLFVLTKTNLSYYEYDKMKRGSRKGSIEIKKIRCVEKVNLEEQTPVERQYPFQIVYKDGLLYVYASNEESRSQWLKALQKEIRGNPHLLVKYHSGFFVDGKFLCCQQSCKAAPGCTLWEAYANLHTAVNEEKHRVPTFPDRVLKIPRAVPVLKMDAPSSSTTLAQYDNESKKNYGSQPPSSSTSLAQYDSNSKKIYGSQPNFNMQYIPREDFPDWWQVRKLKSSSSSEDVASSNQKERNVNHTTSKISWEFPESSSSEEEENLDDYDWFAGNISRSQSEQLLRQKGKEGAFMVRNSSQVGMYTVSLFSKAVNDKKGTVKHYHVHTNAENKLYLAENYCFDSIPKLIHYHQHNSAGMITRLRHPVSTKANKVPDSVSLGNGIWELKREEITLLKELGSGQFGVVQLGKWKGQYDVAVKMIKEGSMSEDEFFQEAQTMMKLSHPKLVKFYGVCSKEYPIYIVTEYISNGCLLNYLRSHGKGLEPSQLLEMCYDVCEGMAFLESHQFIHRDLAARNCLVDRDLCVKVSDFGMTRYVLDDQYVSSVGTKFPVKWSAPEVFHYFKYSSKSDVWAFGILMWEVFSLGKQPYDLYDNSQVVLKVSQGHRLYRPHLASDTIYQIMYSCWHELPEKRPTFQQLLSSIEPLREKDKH
Method in brief: (§1)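 At 1 μM ATP spiked with 33P-ATP, substrate phosphorylation by the purified enzymes gives the extent of inhibition.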

Btk = target: T2, Btk (Homo sapiens, UniProt Q06187); assay: Btk in vitro inhibitory activity (one of Method A TR-FRET, Method B electrophoretic mobility shift, Method C radiometric filter binding)
T2 construct: purified from insect cells as a full-length construct containing a N-terminal 6X-His tag; His6 (N); made in house; host or cells: insect cells (Method C)
Method in brief: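 Three alternative formats were used. A radiometric filter-binding read used 8 nM full-length His-BTK with 0.2 mg/mL poly(Glu-Tyr) 4:1 (C); microfluidic separation of 1 μM FAM-peptide by 1 nM BTK gave IC50 from 12-point curves (B); TR-FRET at Km ATP, 0.5 nM Btk, gave Ki(app)-derived IC50 (A).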

TEC = target: T3, TEC (Homo sapiens, UniProt P42680); assay: Inhibition of a panel of kinases (in vitro HotSpot kinase assay, 33P-ATP, 1 μM ATP); details: for IC50: HotSpot kinase assay, 1 μM ATP; for TEC/Btk: ratio of TEC IC50 to Btk IC50 (selectivity)
T3 sequence (P42680 1-631): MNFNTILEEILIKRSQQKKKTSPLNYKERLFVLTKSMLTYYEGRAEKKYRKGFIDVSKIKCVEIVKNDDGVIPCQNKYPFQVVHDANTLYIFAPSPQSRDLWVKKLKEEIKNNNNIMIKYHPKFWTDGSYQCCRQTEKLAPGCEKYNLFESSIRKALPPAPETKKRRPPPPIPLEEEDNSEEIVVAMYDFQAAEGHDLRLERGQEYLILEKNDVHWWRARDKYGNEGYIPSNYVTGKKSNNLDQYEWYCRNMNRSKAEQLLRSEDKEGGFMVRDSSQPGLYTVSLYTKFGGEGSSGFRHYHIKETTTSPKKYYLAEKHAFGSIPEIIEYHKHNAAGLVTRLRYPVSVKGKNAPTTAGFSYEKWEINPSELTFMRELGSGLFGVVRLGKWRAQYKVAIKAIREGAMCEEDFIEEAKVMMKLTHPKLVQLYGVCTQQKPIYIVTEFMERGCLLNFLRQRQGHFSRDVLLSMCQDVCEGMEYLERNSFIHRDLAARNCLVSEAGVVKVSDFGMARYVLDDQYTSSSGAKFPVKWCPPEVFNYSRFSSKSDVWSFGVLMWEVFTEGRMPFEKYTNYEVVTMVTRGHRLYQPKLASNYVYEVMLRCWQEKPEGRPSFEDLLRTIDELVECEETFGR
Method in brief: as §1

[1] = method is one of A, B or C, not stated which, read-out: IC50 values against Btk
[2] = wild-type Btk, read-out: Btk-WT IC50

T2 sequence (Q06187 whole entry): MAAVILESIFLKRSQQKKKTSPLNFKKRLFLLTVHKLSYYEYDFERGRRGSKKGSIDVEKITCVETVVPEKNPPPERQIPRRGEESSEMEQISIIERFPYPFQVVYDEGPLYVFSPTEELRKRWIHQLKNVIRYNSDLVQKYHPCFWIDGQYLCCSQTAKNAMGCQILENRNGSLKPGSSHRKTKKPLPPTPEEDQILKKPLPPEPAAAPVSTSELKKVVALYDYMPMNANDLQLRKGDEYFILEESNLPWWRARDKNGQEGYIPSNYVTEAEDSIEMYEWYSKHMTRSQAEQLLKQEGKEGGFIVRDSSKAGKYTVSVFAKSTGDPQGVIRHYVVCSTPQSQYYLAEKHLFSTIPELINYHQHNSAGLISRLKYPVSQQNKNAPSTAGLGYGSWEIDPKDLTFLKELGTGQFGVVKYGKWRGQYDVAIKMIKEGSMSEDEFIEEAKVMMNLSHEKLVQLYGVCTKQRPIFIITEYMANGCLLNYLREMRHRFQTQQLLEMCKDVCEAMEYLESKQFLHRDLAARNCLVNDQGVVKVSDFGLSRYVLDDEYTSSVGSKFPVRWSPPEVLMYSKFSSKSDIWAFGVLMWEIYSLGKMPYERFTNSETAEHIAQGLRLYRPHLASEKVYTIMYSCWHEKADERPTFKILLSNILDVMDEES

C[C@H]1CC[C@@H](Nc2n[nH]c3nccc(-c4ccc(CNC(=O)c5noc(C(C)(C)C)n5)c(F)c4)c23)CN1CC#N [Example 143, 5-tert-butyl-N-{[4-(3-{[(3R,6S)-1-(cyanomethyl)-6-methylpiperidin-3-yl]amino}-1H-pyrazolo[3,4-b]pyridin-4-yl)-2-fluorophenyl]methyl}-1,2,4-oxadiazole-3-carboxamide]
IC50 (panel of kinases): 2930 nM | IC50 (Btk; [1]): < 10 nM | IC50 (Btk; [2]): 7.08 nM | IC50 (TEC): 2230 nM | TEC/Btk (TEC): 315

C[C@H]1CC[C@@H](Nc2n[nH]c3nccc(-c4ccc(CNC(=O)c5cc(C(C)(C)C)on5)c(F)c4)c23)CN1 [Example 144, 5-tert-butyl-N-{[2-fluoro-4-(3-{[(3R,6S)-6-methylpiperidin-3-yl]amino}-1H-pyrazolo[3,4-b]pyridin-4-yl)phenyl]methyl}-1,2-oxazole-3-carboxamide]
IC50 (panel of kinases): 912 nM | IC50 (Btk; [2]): 225 nM | IC50 (TEC): 1320 nM | TEC/Btk (TEC): 6

C[C@H]1CC[C@@H](Nc2n[nH]c3nccc(-c4ccc(CNC(=O)c5cc(C(C)(C)C)on5)c(F)c4)c23)CN1C(=O)N(C)C [Example 145, (2S,5R)-5-{[4-(4-{[(5-tert-butyl-1,2-oxazol-3-yl)formamido]methyl}-3-fluorophenyl)-1H-pyrazolo[3,4-b]pyridin-3-yl]amino}-N,N,2-trimethylpiperidine-1-carboxamide]
IC50 (panel of kinases): 1040 nM | IC50 (Btk; [1]): < 10 nM | IC50 (Btk; [2]): 1.93 nM | IC50 (TEC): 1060 nM | TEC/Btk (TEC): 549

C=CC(=O)N1C[C@H](Nc2n[nH]c3nccc(-c4ccc(CNC(=O)c5cc(C(C)(C)C)on5)c(F)c4)c23)CC[C@@H]1C [Example 146, 5-tert-butyl-N-{[2-fluoro-4-(3-{[(3R,6S)-6-methyl-1-(prop-2-enoyl)piperidin-3-yl]amino}-1H-pyrazolo[3,4-b]pyridin-4-yl)phenyl]methyl}-1,2-oxazole-3-carboxamide]
IC50 (panel of kinases): 21 nM | IC50 (Btk; [1]): < 10 nM | IC50 (Btk; [2]): 0.202 nM | IC50 (TEC): 47 nM | TEC/Btk (TEC): 234

C[C@H]1CC[C@@H](Nc2n[nH]c3nccc(-c4ccc(CNC(=O)c5nc(C(C)(C)C)no5)c(F)c4)c23)CN1 [Example 147, 3-tert-butyl-N-{[2-fluoro-4-(3-{[(3R,6S)-6-methylpiperidin-3-yl]amino}-1H-pyrazolo[3,4-b]pyridin-4-yl)phenyl]methyl}-1,2,4-oxadiazole-5-carboxamide]
IC50 (panel of kinases): 5530 nM | IC50 (Btk; [2]): 84.4 nM | IC50 (TEC): > 10000 nM | TEC/Btk (TEC): >100

C=CC(=O)N1C[C@H](Nc2n[nH]c3nccc(-c4ccc(CNC(=O)c5nc(C(C)(C)C)no5)c(F)c4)c23)CC[C@@H]1C [Example 148, 3-tert-butyl-N-{[2-fluoro-4-(3-{[(3R,6S)-6-methyl-1-(prop-2-enoyl)piperidin-3-yl]amino}-1H-pyrazolo[3,4-b]pyridin-4-yl)phenyl]methyl}-1,2,4-oxadiazole-5-carboxamide]
IC50 (panel of kinases): 12 nM | IC50 (Btk; [1]): < 10 nM | IC50 (Btk; [2]): 0.0924 nM | IC50 (TEC): 28 nM | TEC/Btk (TEC): 305

CC1(C)Cc2cc(C(=O)NCc3ccc(-c4ccnc5[nH]nc(N[C@@H]6CCNC6)c45)cc3F)[nH]c2C1 [Example 149, N-{[2-fluoro-4-(3-{[(3R)-pyrrolidin-3-yl]amino}-1H-pyrazolo[3,4-b]pyridin-4-yl)phenyl]methyl}-5,5-dimethyl-1H,4H,5H,6H-cyclopenta[b]pyrrole-2-carboxamide]
IC50 (panel of kinases): > 10000 nM | IC50 (Btk; [2]): 739 nM | IC50 (TEC): > 10000 nM | TEC/Btk (TEC): >100

CC(C)(C)c1ccc(C(=O)Nc2cccc(-c3ccnc4[nH]nc(N[C@@H]5CCNC5)c34)c2CO)cc1 [Example 150, 4-tert-butyl-N-[2-(hydroxymethyl)-3-(3-{[(3R)-pyrrolidin-3-yl]amino}-1H-pyrazolo[3,4-b]pyridin-4-yl)phenyl]benzamide]
IC50 (panel of kinases): > 10000 nM | IC50 (Btk; [2]): 35.3 nM | IC50 (TEC): > 10000 nM | TEC/Btk (TEC): >100

CC(C)(C)c1nc(C(=O)NCc2ccc(-c3ccnc4[nH]nc(N[C@H]5CC[C@H](N)CC5)c34)cc2F)no1 [Example 151, 5-tert-butyl-N-{[2-fluoro-4-(3-{[(1r,4r)-4-aminocyclohexyl]amino}-1H-pyrazolo[3,4-b]pyridin-4-yl)phenyl]methyl}-1,2,4-oxadiazole-3-carboxamide]
IC50 (panel of kinases): 8120 nM | IC50 (Btk; [2]): 21.7 nM | IC50 (TEC): 8270 nM

C=CC(=O)N[C@H]1CC[C@H](Nc2n[nH]c3nccc(-c4ccc(CNC(=O)c5noc(C(C)(C)C)n5)c(F)c4)c23)CC1 [Example 152, 5-tert-butyl-N-{[2-fluoro-4-(3-{[(1r,4r)-4-(prop-2-enamido)cyclohexyl]amino}-1H-pyrazolo[3,4-b]pyridin-4-yl)phenyl]methyl}-1,2,4-oxadiazole-3-carboxamide]
IC50 (panel of kinases): 496 nM | IC50 (Btk; [1]): < 10 nM | IC50 (Btk; [2]): 3.41 nM | IC50 (TEC): 2680 nM

CC(C)(C)c1nc(C(=O)NCc2ccc(-c3ccnc4[nH]nc(N[C@H]5CC[C@@H](N)CC5)c34)cc2F)no1 [Example 153, 5-tert-butyl-N-{[2-fluoro-4-(3-{[(1s,4s)-4-aminocyclohexyl]amino}-1H-pyrazolo[3,4-b]pyridin-4-yl)phenyl]methyl}-1,2,4-oxadiazole-3-carboxamide]
IC50 (panel of kinases): 2000 nM | IC50 (Btk; [2]): 18.9 nM | IC50 (TEC): 3200 nM | TEC/Btk (TEC): 169

C=CC(=O)N[C@H]1CC[C@@H](Nc2n[nH]c3nccc(-c4ccc(CNC(=O)c5noc(C(C)(C)C)n5)c(F)c4)c23)CC1 [Example 154, 5-tert-butyl-N-{[2-fluoro-4-(3-{[(1s,4s)-4-(prop-2-enamido)cyclohexyl]amino}-1H-pyrazolo[3,4-b]pyridin-4-yl)phenyl]methyl}-1,2,4-oxadiazole-3-carboxamide]
IC50 (panel of kinases): 229 nM | IC50 (Btk; [1]): < 10 nM | IC50 (Btk; [2]): 0.237 nM | IC50 (TEC): 409 nM | TEC/Btk (TEC): 1726

CC(C)(C)c1nc(NC(=O)Nc2ccc(-c3ccnc4[nH]nc(N[C@@H]5CCNC5)c34)cc2F)no1 [Example 155, 3-(5-tert-butyl-1,2,4-oxadiazol-3-yl)-1-[2-fluoro-4-(3-{[(3R)-pyrrolidin-3-yl]amino}-1H-pyrazolo[3,4-b]pyridin-4-yl)phenyl]urea]
IC50 (panel of kinases): > 10000 nM | IC50 (Btk; [2]): > 10000 nM | IC50 (TEC): > 10000 nM

C=CC(=O)N1CC[C@@H](Nc2n[nH]c3nccc(-c4ccc(NC(=O)Nc5noc(C(C)(C)C)n5)c(F)c4)c23)C1 [Example 156, 3-(5-tert-butyl-1,2,4-oxadiazol-3-yl)-1-[2-fluoro-4-(3-{[(3R)-1-(prop-2-enoyl)pyrrolidin-3-yl]amino}-1H-pyrazolo[3,4-b]pyridin-4-yl)phenyl]urea]
IC50 (panel of kinases): 111 nM | IC50 (Btk; [2]): 639 nM | IC50 (TEC): 407 nM | TEC/Btk (TEC): 1

Cn1c(C(=O)NCc2ccc(-c3ccnc4[nH]nc(N[C@@H]5CCNC5)c34)cc2F)cc2c1CC(C)(C)C2 [Example 157, N-{[2-fluoro-4-(3-{[(3R)-pyrrolidin-3-yl]amino}-1H-pyrazolo[3,4-b]pyridin-4-yl)phenyl]methyl}-1,5,5-trimethyl-1H,4H,5H,6H-cyclopenta[b]pyrrole-2-carboxamide]
IC50 (panel of kinases): > 10000 nM | IC50 (Btk; [2]): > 10000 nM | IC50 (TEC): > 10000 nM
